# Reference: EP1433789A1, “Pyrrolopyrazines and their use as selective apoptosis inducers” (Aponetics AG, priority 2002, dated 2004)
# Assays:
# Assay type in all cases: cell-based, human
# [1] = test system: HT 1080; experiment: Hoechst 33342 nuclear staining (Table 3); set-up: key: 0 relating to no activity; 1 relating to weak activity comprising less than 50% of the cells; score 2 relating to strong activity comprising more than 50% of the cells
# How it was run: (§1)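 Adherent cells (3-5×10^3, pre-spread 24 h) or suspension cells (8-10×10^3) treated with compounds at 10, 3, 1 and 0.3 µM for 24 or 48 h, then Hoechst 33342 stained for 30 min. Apoptotic nuclear morphology scored by fluorescence microscopy: 0 none, 1 weak (<50% cells), 2 strong (>50% cells).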
# [2] = test system: Ramos; experiment: Hoechst 33342 nuclear staining (Table 3); set-up: key: 0 relating to no activity; 1 relating to weak activity comprising less than 50% of the cells; score 2 relating to strong activity comprising more than 50% of the cells
# How it was run: as §1
# [3] = test system: KB; experiment: Hoechst 33342 nuclear staining (Table 3); set-up: key: 0 relating to no activity; 1 relating to weak activity comprising less than 50% of the cells; score 2 relating to strong activity comprising more than 50% of the cells
# How it was run: as §1
# [4] = test system: K562; experiment: Hoechst 33342 nuclear staining (Table 3); set-up: key: 0 relating to no activity; 1 relating to weak activity comprising less than 50% of the cells; score 2 relating to strong activity comprising more than 50% of the cells
# How it was run: as §1
# [5] = test system: HBL 100; experiment: Hoechst 33342 nuclear staining (Table 3); set-up: key: 0 relating to no activity; 1 relating to weak activity comprising less than 50% of the cells; score 2 relating to strong activity comprising more than 50% of the cells
# How it was run: as §1
# [6] = test system: Jurkat; experiment: PI staining for cell cycle distribution; set-up: key: 0 indicates no occurrence at all; 1 for weak; 2 for strong occurrence; conditions: Jurkat 3 uM, 24 h
# Procedure: (§2) 1 - 2*10^5 cells are seeded into 24 well tissue culture plates and incubated for 24 h prior to compound addition. Compounds are added for 24 h in a final concentration of 3 µM or 10 µM. Adherent cells are harvested by trypsinization. The cell suspensions are fixed by adding 2 parts ice cold ethanol 100% while vortexing. Then the samples are stored for > 2 h at-20°C. Subsequently the cells are washed with PBS once and resuspended in 250 µl PBS containing 50 µg/ml PI (Calbiochem # 537059), then the samples are incubated at 37°C for 30 minutes and subsequently analyzed on a FACSCalibur™ monitoring linear PI fluorescence activity on FL2.. The readout allows the detection of a possible direct or indirect influence of the tested compounds on the cell cycle. The following events can occur: a) Generation of a subG1 peak indicative for DNA fragmentation, b) increase of the cell population arrested in G2M phase. Both events are scored by 1 for weak and 2 for strong occurrence. 0 indicates no occurrence at all. […]
# [7] = test system: HeLa; experiment: PI staining for cell cycle distribution; set-up: key: 0 indicates no occurrence at all; 1 for weak; 2 for strong occurrence; conditions: HeLa 10 µM, 24 h
# Procedure: as §2
smiles,measurement,setting,value
COc1cc2c(cc1OC)-c1c(Br)c3nc4ccccc4nc3n1C(C)C2 (stereo not shown) [compound 10],"Hoechst 33342 nuclear staining (fraction of apoptotic nuclei), score","[1]; HT 1080, 24h, 0.3 µM",0
same,"Hoechst 33342 nuclear staining (fraction of apoptotic nuclei), score","[1]; HT 1080, 24h, 1 µM",1 (1 relating to weak activity comprising less than 50% of the cells)
same,"Hoechst 33342 nuclear staining (fraction of apoptotic nuclei), score","[1]; HT 1080, 24h, 3 µM",2 (score 2 relating to strong activity comprising more than 50% of the cells)
same,"Hoechst 33342 nuclear staining (fraction of apoptotic nuclei), score","[1]; HT 1080, 24h, 10 µM",2 (score 2 relating to strong activity comprising more than 50% of the cells)
same,"Hoechst 33342 nuclear staining (fraction of apoptotic nuclei), score","[1]; HT 1080, 48h, 0.3 µM",0
same,"Hoechst 33342 nuclear staining (fraction of apoptotic nuclei), score","[1]; HT 1080, 48h, 1 µM",2 (score 2 relating to strong activity comprising more than 50% of the cells)
same,"Hoechst 33342 nuclear staining (fraction of apoptotic nuclei), score","[1]; HT 1080, 48h, 3 µM",2 (score 2 relating to strong activity comprising more than 50% of the cells)
same,"Hoechst 33342 nuclear staining (fraction of apoptotic nuclei), score","[1]; HT 1080, 48h, 10 µM",2 (score 2 relating to strong activity comprising more than 50% of the cells)
same,Hoechst 33342 nuclear staining,"[2]; 24h, conc 0.3 (µM)",0
same,Hoechst 33342 nuclear staining,"[2]; 24h, conc 1 (µM)",0
same,Hoechst 33342 nuclear staining,"[2]; 24h, conc 3 (µM)",0
same,Hoechst 33342 nuclear staining,"[2]; 24h, conc 10 (µM)",2 (score 2 relating to strong activity comprising more than 50% of the cells)
same,Hoechst 33342 nuclear staining,"[2]; 48h, conc 0.3 (µM)",0
same,Hoechst 33342 nuclear staining,"[2]; 48h, conc 1 (µM)",2 (score 2 relating to strong activity comprising more than 50% of the cells)
same,Hoechst 33342 nuclear staining,"[2]; 48h, conc 3 (µM)",2 (score 2 relating to strong activity comprising more than 50% of the cells)
same,Hoechst 33342 nuclear staining,"[2]; 48h, conc 10 (µM)",2 (score 2 relating to strong activity comprising more than 50% of the cells)
same,Hoechst 33342 nuclear staining,"[3]; 24h, conc 0.3 (µM)",0
same,Hoechst 33342 nuclear staining,"[3]; 24h, conc 1 (µM)",0
same,Hoechst 33342 nuclear staining,"[3]; 24h, conc 3 (µM)",2 (score 2 relating to strong activity comprising more than 50% of the cells)
same,Hoechst 33342 nuclear staining,"[3]; 24h, conc 10 (µM)",2 (score 2 relating to strong activity comprising more than 50% of the cells)
same,Hoechst 33342 nuclear staining,"[3]; 48h, conc 0.3 (µM)",0
same,Hoechst 33342 nuclear staining,"[3]; 48h, conc 1 (µM)",2 (score 2 relating to strong activity comprising more than 50% of the cells)
same,Hoechst 33342 nuclear staining,"[3]; 48h, conc 3 (µM)",2 (score 2 relating to strong activity comprising more than 50% of the cells)
same,Hoechst 33342 nuclear staining,"[3]; 48h, conc 10 (µM)",2 (score 2 relating to strong activity comprising more than 50% of the cells)
same,Hoechst 33342 nuclear staining,"[4]; K562, 24h, conc 0.3 (µM)",0
same,Hoechst 33342 nuclear staining,"[4]; K562, 24h, conc 1 (µM)",0
same,Hoechst 33342 nuclear staining,"[4]; K562, 24h, conc 3 (µM)",2 (score 2 relating to strong activity comprising more than 50% of the cells)
same,Hoechst 33342 nuclear staining,"[4]; K562, 24h, conc 10 (µM)",2 (score 2 relating to strong activity comprising more than 50% of the cells)
same,Hoechst 33342 nuclear staining,"[4]; K562, 48h, conc 0.3 (µM)",0
same,Hoechst 33342 nuclear staining,"[4]; K562, 48h, conc 1 (µM)",2 (score 2 relating to strong activity comprising more than 50% of the cells)
same,Hoechst 33342 nuclear staining,"[4]; K562, 48h, conc 3 (µM)",2 (score 2 relating to strong activity comprising more than 50% of the cells)
same,Hoechst 33342 nuclear staining,"[4]; K562, 48h, conc 10 (µM)",2 (score 2 relating to strong activity comprising more than 50% of the cells)
same,"Hoechst 33342 nuclear staining (fraction of apoptotic nuclei), score","[5]; HBL 100, 24h, 0.3 µM",1 (1 relating to weak activity comprising less than 50% of the cells)
same,"Hoechst 33342 nuclear staining (fraction of apoptotic nuclei), score","[5]; HBL 100, 24h, 1 µM",2 (score 2 relating to strong activity comprising more than 50% of the cells)
same,"Hoechst 33342 nuclear staining (fraction of apoptotic nuclei), score","[5]; HBL 100, 24h, 3 µM",2 (score 2 relating to strong activity comprising more than 50% of the cells)
same,"Hoechst 33342 nuclear staining (fraction of apoptotic nuclei), score","[5]; HBL 100, 24h, 10 µM",2 (score 2 relating to strong activity comprising more than 50% of the cells)
same,"Hoechst 33342 nuclear staining (fraction of apoptotic nuclei), score","[5]; HBL 100, 48h, 0.3 µM",2 (score 2 relating to strong activity comprising more than 50% of the cells)
same,"Hoechst 33342 nuclear staining (fraction of apoptotic nuclei), score","[5]; HBL 100, 48h, 1 µM",2 (score 2 relating to strong activity comprising more than 50% of the cells)
same,"Hoechst 33342 nuclear staining (fraction of apoptotic nuclei), score","[5]; HBL 100, 48h, 3 µM",2 (score 2 relating to strong activity comprising more than 50% of the cells)
same,"Hoechst 33342 nuclear staining (fraction of apoptotic nuclei), score","[5]; HBL 100, 48h, 10 µM",2 (score 2 relating to strong activity comprising more than 50% of the cells)
same,G2M (increase of the cell population arrested in G2M phase),[6],0
same,subG1 (generation of a subG1 peak indicative for DNA fragmentation),[6],0
same,G2M (increase of the cell population arrested in G2M phase),[7],0
same,subG1 (generation of a subG1 peak indicative for DNA fragmentation),[7],0
CC1Cc2ccccc2-c2c(Cl)c3nc4ccccc4nc3n21 (stereo not shown) [compound 11],Hoechst 33342 nuclear staining,"[3]; 24h, conc 0.3 (µM)",0
same,Hoechst 33342 nuclear staining,"[3]; 24h, conc 1 (µM)",0
same,Hoechst 33342 nuclear staining,"[3]; 24h, conc 3 (µM)",0
same,Hoechst 33342 nuclear staining,"[3]; 24h, conc 10 (µM)",0
same,Hoechst 33342 nuclear staining,"[3]; 48h, conc 0.3 (µM)",0
same,Hoechst 33342 nuclear staining,"[3]; 48h, conc 1 (µM)",0
same,Hoechst 33342 nuclear staining,"[3]; 48h, conc 3 (µM)",1 (1 relating to weak activity comprising less than 50% of the cells)
same,Hoechst 33342 nuclear staining,"[3]; 48h, conc 10 (µM)",2 (score 2 relating to strong activity comprising more than 50% of the cells)
same,Hoechst 33342 nuclear staining,"[4]; K562, 24h, conc 0.3 (µM)",0
same,Hoechst 33342 nuclear staining,"[4]; K562, 24h, conc 1 (µM)",0
same,Hoechst 33342 nuclear staining,"[4]; K562, 24h, conc 3 (µM)",0
same,Hoechst 33342 nuclear staining,"[4]; K562, 24h, conc 10 (µM)",2 (score 2 relating to strong activity comprising more than 50% of the cells)
same,Hoechst 33342 nuclear staining,"[4]; K562, 48h, conc 0.3 (µM)",0
same,Hoechst 33342 nuclear staining,"[4]; K562, 48h, conc 1 (µM)",0
same,Hoechst 33342 nuclear staining,"[4]; K562, 48h, conc 3 (µM)",1 (1 relating to weak activity comprising less than 50% of the cells)
same,Hoechst 33342 nuclear staining,"[4]; K562, 48h, conc 10 (µM)",2 (score 2 relating to strong activity comprising more than 50% of the cells)
same,G2M (increase of the cell population arrested in G2M phase),[6],0
same,subG1 (generation of a subG1 peak indicative for DNA fragmentation),[6],0
same,G2M (increase of the cell population arrested in G2M phase),[7],0
same,subG1 (generation of a subG1 peak indicative for DNA fragmentation),[7],0
